# Laboratory results as given in patent publication US8026218B2, “Bifunctional analgesic compounds for opioid receptor agonists and neurokinin-1 receptor antagonists” (The University of Arizona, priority 2006, dated 2011).
# Like-named read-outs stand apart in the source and are kept apart here.
# How the values were obtained:
# [1] = target: T1, human δ opioid receptors (hDOR) (Homo sapiens, UniProt P41143); experiment: Radioligand competition binding, [3H]DPDPE, hDOR membranes
# T1 construct: expressed in transfected cells; host or cells: HN9.10 neuroblastoma cell line, pCDNA3, neomycin-selected clones
# T1 sequence (P41143 whole entry): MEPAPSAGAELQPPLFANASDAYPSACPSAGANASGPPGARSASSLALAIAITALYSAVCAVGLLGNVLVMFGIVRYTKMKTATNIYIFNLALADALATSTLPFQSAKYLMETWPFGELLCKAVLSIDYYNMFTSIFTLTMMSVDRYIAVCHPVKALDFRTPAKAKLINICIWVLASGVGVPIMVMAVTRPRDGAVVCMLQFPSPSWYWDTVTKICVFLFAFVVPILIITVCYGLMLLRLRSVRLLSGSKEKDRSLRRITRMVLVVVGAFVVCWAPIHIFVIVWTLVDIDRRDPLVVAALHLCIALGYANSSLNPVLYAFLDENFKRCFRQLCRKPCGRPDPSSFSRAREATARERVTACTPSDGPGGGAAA
# [2] = target: T2, rat μ opioid receptors (rMOR) (Rattus norvegicus, UniProt P33535); experiment: Radioligand competition binding, [3H]DAMGO, rMOR membranes
# T2 construct: expressed in transfected cells; host or cells: HN9.10 neuroblastoma cell line, pCDNA3, neomycin-selected clones
# T2 sequence (P33535 whole entry): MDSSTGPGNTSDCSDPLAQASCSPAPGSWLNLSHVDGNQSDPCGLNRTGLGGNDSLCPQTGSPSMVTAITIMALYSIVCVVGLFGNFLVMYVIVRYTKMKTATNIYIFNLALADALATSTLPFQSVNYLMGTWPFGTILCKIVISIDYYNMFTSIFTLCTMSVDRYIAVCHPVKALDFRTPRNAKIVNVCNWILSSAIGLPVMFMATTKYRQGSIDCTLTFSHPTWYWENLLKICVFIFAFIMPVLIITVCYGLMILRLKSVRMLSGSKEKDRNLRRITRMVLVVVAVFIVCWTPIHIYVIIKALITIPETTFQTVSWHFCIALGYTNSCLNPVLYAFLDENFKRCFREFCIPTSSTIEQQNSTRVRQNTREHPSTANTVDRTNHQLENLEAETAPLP
# rat NK1 (rNK1) receptor = target: T3, rat NK1 (rNK1) receptor (Rattus norvegicus, UniProt P14600); experiment: Radioligand competition binding, [3H]substance P, rNK1/CHO membranes; conditions: for IC50: membranes from transfected CHO cells
# T3 construct: expressed in transfected cells; host or cells: CHO (rNK-1/CHO cell line from Dr. James Krause)
# T3 sequence (P14600 whole entry): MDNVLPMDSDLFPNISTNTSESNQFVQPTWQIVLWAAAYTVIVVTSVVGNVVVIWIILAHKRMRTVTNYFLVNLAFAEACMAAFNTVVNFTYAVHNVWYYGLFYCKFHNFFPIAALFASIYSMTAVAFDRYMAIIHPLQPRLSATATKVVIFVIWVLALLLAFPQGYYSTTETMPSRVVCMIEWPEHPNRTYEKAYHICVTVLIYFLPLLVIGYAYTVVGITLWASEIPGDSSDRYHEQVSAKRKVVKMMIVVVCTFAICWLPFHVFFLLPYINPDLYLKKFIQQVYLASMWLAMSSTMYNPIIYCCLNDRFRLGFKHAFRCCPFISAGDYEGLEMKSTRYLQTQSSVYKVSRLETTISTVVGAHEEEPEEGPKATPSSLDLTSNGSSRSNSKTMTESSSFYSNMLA
# [3] = target: T4, human NK1 receptor (hNK1) (Homo sapiens, UniProt P25103); experiment: Radioligand competition binding, [3H]-Substance P, hNK1
# T4 construct: expressed in transfected cells
# T4 sequence (P25103 whole entry): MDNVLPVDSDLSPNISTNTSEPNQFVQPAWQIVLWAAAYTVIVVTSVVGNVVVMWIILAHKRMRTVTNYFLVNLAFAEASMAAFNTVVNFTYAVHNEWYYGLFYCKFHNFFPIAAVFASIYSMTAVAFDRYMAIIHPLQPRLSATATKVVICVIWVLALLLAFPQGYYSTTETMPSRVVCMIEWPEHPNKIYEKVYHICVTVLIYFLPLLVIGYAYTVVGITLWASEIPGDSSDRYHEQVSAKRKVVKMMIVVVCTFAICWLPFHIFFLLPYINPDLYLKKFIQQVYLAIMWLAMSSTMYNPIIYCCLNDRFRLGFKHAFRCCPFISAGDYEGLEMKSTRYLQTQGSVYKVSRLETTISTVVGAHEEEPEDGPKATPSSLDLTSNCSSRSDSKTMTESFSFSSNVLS
# [4] = target: T1, human δ opioid receptors (hDOR); experiment: [35S]GTP-γ-S binding assay, hDOR; type: biochemical
# [5] = target: T2, rat μ opioid receptors (rMOR); experiment: biochemical; type: biochemical
# δ opioid receptors (MVD) = target: T5, δ opioid receptors (MVD) (Mus musculus, UniProt P32300); experiment: Mouse isolated vas deferens (MVD) assay, opioid agonist
# T5 construct: from tissue; host or cells: mouse (ICR) isolated vas deferens
# T5 sequence (P32300 whole entry): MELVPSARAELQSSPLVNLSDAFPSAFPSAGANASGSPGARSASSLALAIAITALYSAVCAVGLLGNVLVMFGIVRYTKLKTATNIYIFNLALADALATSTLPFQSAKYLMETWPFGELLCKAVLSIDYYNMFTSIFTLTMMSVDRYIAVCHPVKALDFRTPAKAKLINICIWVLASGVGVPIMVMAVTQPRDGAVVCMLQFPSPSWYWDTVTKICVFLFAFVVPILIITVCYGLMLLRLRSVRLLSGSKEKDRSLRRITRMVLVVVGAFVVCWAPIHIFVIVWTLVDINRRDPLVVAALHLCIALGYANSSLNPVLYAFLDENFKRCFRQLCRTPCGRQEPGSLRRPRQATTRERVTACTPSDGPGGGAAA
# μ opioid receptors (GPI) = experiment: Guinea pig isolated ileum (GPI) assay, opioid agonist; parameters: GPI/LMMP Opioid(m) Agonist, % inh.: unit of the concentration uncertain;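 note: inhibition of electrically evoked contractions (0.1 Hz, 0.4 msec, supramaximal voltage) in organ baths at 37 °C, contraction height 3 min after each cumulative dose versus the 1 min before dosing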
# [6] = target: T6, Substance P receptors (guinea pig NK1) (Cavia porcellus, UniProt P30547); experiment: Guinea pig isolated ileum (GPI) assay with substance P stimulation in presence of 1 μM naloxone; conditions: for GPI/LMMP SP Agonist (IC50; nM): Table 39
# T6 construct: from tissue; host or cells: guinea pig (Hartley) ileum LMMP, 1 μM naloxone present
# T6 sequence (P30547 whole entry): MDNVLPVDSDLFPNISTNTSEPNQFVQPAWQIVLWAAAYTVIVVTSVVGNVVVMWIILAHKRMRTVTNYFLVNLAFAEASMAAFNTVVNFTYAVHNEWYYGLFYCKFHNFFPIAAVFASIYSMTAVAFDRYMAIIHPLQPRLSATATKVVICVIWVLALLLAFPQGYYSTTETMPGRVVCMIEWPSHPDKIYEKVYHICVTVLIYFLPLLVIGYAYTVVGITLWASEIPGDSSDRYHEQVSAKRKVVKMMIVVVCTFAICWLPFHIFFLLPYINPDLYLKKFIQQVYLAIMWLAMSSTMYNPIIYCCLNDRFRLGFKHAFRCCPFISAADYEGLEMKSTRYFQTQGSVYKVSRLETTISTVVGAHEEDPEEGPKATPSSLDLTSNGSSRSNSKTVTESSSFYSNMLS
# [7] = membranes from transfected HN9.10 cells
# [8] = read-out: GTP binding hDOR Emax
# [9] = Table 39, read-out: GTP binding rMOR Emax
# [10] = Table 30, read-out: GPI/LMMP Opioid(m) Agonist (IC50; nM)
# [11] = Table 39, read-out: GPI/LMMP opioid(mu) agonist (IC50; nM)
structure (smiles),measurement,setting,value
"CC(C)C[C@H](NC(=O)[C@@H]1CCCN1C(=O)[C@@H](Cc1ccccc1)NC(=O)[C@H](Cc1ccccc1)NC(=O)CNC(=O)[C@@H](C)NC(=O)[C@@H](N)Cc1ccc(O)cc1)C(=O)N[C@@H](Cc1c[nH]c2ccccc12)C(=O)OCc1cc(C(F)(F)F)cc(C(F)(F)F)c1 [TY007, H-Tyr-D-Ala-Gly-Phe-D-Phe-Pro-Leu-Trp-O-3,5-Bzl(CF3)2]",Ki,[1],110 nM
same,Ki(μ)/Ki(δ),"[1]; binding, rMOR vs hDOR",4.1
same,"LogIC50, hDOR, [3H]DPDPE",[1]; [7],−6.70 ± 0.13
same,Ki,"[1]; read-out: Ki, hDOR, [3H]DPDPE",93 nM
same,Ki,[2],410 nM
same,"LogIC50, rMOR, [3H]DAMGO",[2]; [7],−6.09 ± 0.15
same,Ki,"[2]; read-out: Ki, rMOR, [3H]DAMGO",381 nM
same,IC50,"rat NK1 (rNK1) receptor; IC50, rNK1, Substance P radioligand",66.7 nM
same,IC50,"rat NK1 (rNK1) receptor; LogIC50, rNK1, Substance P radioligand",60.3 nM
same,Ki,[3],1.3 nM
same,Ki(μ)/Ki(δ),[4],20.5
same,"LogEC50, hDOR, [35S]GTP-γ-S binding",[4],−7.78 ± 0.36
same,Emax,"[4]; read-out: Emax, hDOR, [35S]GTP-γ-S binding",26%
same,EC50,[4]; read-out: GTP binding hDOR EC50,16.7 nM
same,Emax,[4]; [8],22.9%
same,Emax,[4]; read-out: GTP binding hDOR Emax (%),22.9%
same,"LogEC50, rMOR, [35S]GTP-γ-S binding",[5],−6.46 ± 0.38
same,EC50,"[5]; Table 27, read-out: GTP binding rMOR EC50",345 nM
same,Emax,"[5]; Table 27, read-out: GTP binding rMOR Emax (%)",23.6%
same,EC50,"[5]; Table 39, read-out: GTP binding rMOR EC50",345 nM
same,Emax,[5]; [9],23.6%
same,Emax,"[5]; net total bound/basal binding × 100, read-out: Emax, rMOR, [35S]GTP-γ-S binding",22%
same,EC50,"[5]; read-out: EC50, rMOR, [35S]GTP-γ-S binding",345 nM
same,IC50,"δ opioid receptors (MVD); Table 28, read-out: MVD Opioid (d) Agonist (IC50; nM)",412 nM
same,IC50,"δ opioid receptors (MVD); Table 39, read-out: MVD opioid(delta) agonist (IC50; nM)",412 nM
same,IC50,"δ opioid receptors (MVD); electrically stimulated isolated tissue, read-out: MVD (δ), IC50",412 ± 106 nM
same,"GPI/LMMP Opioid(m) Agonist, % inh.","μ opioid receptors (GPI); Table 28, at 1 (unit uncertain)",9% inh. at 1 mM
same,"GPI/LMMP opioid(mu) agonist, %","μ opioid receptors (GPI); Table 39, concentration not given",9.20%
same,"GPI (μ), effect at single concentration",μ opioid receptors (GPI); at 1 μM,9% at 1 μM^b
same,Kb,"[6]; Substance P antagonist, GPI, Ke, in the presence of 1 μM naloxone",69.6 ± 7.1 nM
same,GPI/LMMP SP Agonist (IC50; nM),[6]; concentration not given,none
same,activation at 1 µM,"[6]; read-out: Substance P GPI agonist (A50), at 1 μM, contraction relative to initial muscle contraction with KCl",0%
CSCC[C@H](NC(=O)[C@H](Cc1ccccc1)NC(=O)CNC(=O)[C@@H](C)NC(=O)[C@@H](N)Cc1c(C)cc(O)cc1C)C(=O)N1CCC[C@H]1C(=O)N[C@@H](CC(C)C)C(=O)N[C@@H](Cc1c[nH]c2ccccc12)C(=O)NCc1cc(C(F)(F)F)cc(C(F)(F)F)c1 [TY032],Ki,[1],0.12 nM
same,Ki,[3],0.008 nM
same,EC50,[4]; GTP binding hDOR EC50,1.2 nM
same,Emax,[4]; [8],24%
same,Emax,[5]; [9],74%
same,IC50,δ opioid receptors (MVD),1.82 nM
same,IC50,μ opioid receptors (GPI); [10],18.6 nM
same,IC50,μ opioid receptors (GPI); [11],18.6 nM
same,GPI/LMMP Substance P Agonist (IC50; nM),[6]; Table 30,None
same,GPI/LMMP SP Agonist (IC50; nM),[6]; at 100 nM,none
CSCC[C@H](NC(=O)[C@H](Cc1ccccc1)NC(=O)CNC(=O)[C@@H](C)NC(=O)[C@@H](N)Cc1c(C)cc(O)cc1C)C(=O)N1CCC[C@H]1C(=O)N[C@@H](CC(C)C)C(=O)N[C@@H](Cc1c[nH]c2ccccc12)C(=O)NCc1ccccc1 [TY034],Ki,[1],0.1 nM
same,Ki,[2],0.14 nM
same,Ki,"rat NK1 (rNK1) receptor; Affinity rNK1 (Ki; nM), Table 39",317 nM
same,Emax,"[4]; Table 39, read-out: GTP binding hDOR Emax",21%
same,Emax,[5]; [9],58%
same,IC50,δ opioid receptors (MVD),6.85 nM
same,IC50,μ opioid receptors (GPI); [10],11.4 nM
same,IC50,μ opioid receptors (GPI); [11],11.4 nM
same,Kb,"[6]; GPI/LMMP Substance P Antagonist (Ke; nM), Table 30",36.9 nM
same,GPI/LMMP Substance P Agonist (IC50; nM),[6]; Table 30,None
same,GPI/LMMP SP Agonist (IC50; nM),[6]; at 100 nM,none
CCCC[C@H](NC(=O)[C@H](Cc1ccccc1)NC(=O)CNC(=O)[C@@H](C)NC(=O)[C@@H](N)Cc1c(C)cc(O)cc1C)C(=O)N1CCC[C@H]1C(=O)N[C@@H](CC(C)C)C(=O)N[C@@H](Cc1c[nH]c2ccccc12)C(=O)N(C)Cc1cc(C(F)(F)F)cc(C(F)(F)F)c1 [TY052],Ki,"[1]; Table 31, read-out: Affinity hDOR (Ki; nM)",0.46 nM
same,Ki,"[1]; Table 39, read-out: Affinity hDOR (Ki; nM)",0.46 nM
same,Ki,"[3]; Table 31, read-out: Affinity hNK1 (Ki; nM)",0.21 nM
same,Ki,"[3]; Table 39, read-out: Affinity hNK1 (Ki; nM)",0.21 nM
